Data on eleven molecules can be found in ChEMBL document CHEMBL1201862, “PubChem BioAssay data set” (2004).

One assay addresses fMet-Leu-Phe receptor (Homo sapiens, UniProt P21462). Put plainly: FPR ligands, dose response (AID 519). The assay is classed as functional.
A short description of assay [1]: A549 cell cytotoxicity, dose response, cytotoxicity control, plate reader, cherry-pick, antagonist series (AID 743412). The assay is classed as functional, cell-based.
Assay [2] concerns the target T1, Oxysterols receptor LXR-beta (Homo sapiens, UniProt P55055).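 Further: Cell-based luminescence dose-response assay of agonist activity at LXR, run as a confirmatory counterscreen to a daf-12 agonist screen; HEK293 cells with Gal4-LXR fusion and GAL4-driven luciferase reporter; agonist potency from rising luciferase signal of a Gal4-LXR reporter.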
T1 sequence (P55055 whole entry): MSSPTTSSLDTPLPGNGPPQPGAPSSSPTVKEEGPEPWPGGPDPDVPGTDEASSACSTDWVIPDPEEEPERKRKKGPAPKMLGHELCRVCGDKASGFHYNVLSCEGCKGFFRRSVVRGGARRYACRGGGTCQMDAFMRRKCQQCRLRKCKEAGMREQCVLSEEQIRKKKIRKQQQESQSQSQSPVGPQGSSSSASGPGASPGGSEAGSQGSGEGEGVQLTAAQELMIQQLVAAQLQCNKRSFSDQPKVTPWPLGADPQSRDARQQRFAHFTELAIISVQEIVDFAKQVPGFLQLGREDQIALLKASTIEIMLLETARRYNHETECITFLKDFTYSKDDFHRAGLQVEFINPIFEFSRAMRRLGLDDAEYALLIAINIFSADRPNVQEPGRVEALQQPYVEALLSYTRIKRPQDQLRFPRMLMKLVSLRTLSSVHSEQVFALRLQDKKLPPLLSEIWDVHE
It counts as functional, cell-based.

Assay [3] can be described thus: HepG2 cell cytotoxicity, dose response, cytotoxicity control, plate reader, cherry-pick, antagonist series (AID 743416). It counts as functional, cell-based.
The nature of assay [4]: LGR2 antagonists, dose response, cell-based, HEK293, CRE-luciferase reporter, cherry pick, set 2 (AID 743343).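 Further: transfected cells were stimulated with diluted bursicon conditioned medium after compound addition.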 The assay is classed as functional.
A short description of assay [5]: MC4R antagonists, dose response, counter-screen for LGR2 antagonist project, cell-based, plate reader, cherry pick (AID 743444).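 Further: transfected HEK 293 cells stimulated with alpha-MSH peptide; potency of inhibitors of the alpha-MSH evoked signal.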 The assay is classed as functional.
Assay [6] in a line: cells.
A short description of assay [7]: HEK293 cell cytotoxicity, dose response, cytotoxicity control, plate reader, cherry-picked samples (AID 743446). It counts as functional, cell-based.
Assay [8] can be described thus: cells. The source holds these as a separate data set.
The target in a further assay is Major prion protein (Homo sapiens, UniProt P04156). It counts as functional, cell-based.
The next assay addresses Albumin (Bos taurus, UniProt P02769). Put plainly: Counterscreen for inhibitors of T-cell receptor (TCR)-CD3 interaction: Fluorescence-based biochemical high throughput dose response assay to identify inhibitors of T-cell receptor (TCR)-CD3 interaction using a TAMRA-labeled BSA probe. It counts as functional. On the technique in general: A counterscreen serves to expose hits that act by an unwanted route or on another target.

Another assay deals with Streptococcus. Description: Group A Streptococcus viability loss, dose response, counter-screen for streptokinase expression inhibitor project, luminescence, BacTiterGlo (AID 1915).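 Further: potency for reduction of bacterial viability or growth.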 It counts as functional, organism-based.
For the next assay, the target named is T2, Aminopeptidase N (Plasmodium falciparum FcB1/Columbia, UniProt O96935).
T2 sequence (O96935 whole entry): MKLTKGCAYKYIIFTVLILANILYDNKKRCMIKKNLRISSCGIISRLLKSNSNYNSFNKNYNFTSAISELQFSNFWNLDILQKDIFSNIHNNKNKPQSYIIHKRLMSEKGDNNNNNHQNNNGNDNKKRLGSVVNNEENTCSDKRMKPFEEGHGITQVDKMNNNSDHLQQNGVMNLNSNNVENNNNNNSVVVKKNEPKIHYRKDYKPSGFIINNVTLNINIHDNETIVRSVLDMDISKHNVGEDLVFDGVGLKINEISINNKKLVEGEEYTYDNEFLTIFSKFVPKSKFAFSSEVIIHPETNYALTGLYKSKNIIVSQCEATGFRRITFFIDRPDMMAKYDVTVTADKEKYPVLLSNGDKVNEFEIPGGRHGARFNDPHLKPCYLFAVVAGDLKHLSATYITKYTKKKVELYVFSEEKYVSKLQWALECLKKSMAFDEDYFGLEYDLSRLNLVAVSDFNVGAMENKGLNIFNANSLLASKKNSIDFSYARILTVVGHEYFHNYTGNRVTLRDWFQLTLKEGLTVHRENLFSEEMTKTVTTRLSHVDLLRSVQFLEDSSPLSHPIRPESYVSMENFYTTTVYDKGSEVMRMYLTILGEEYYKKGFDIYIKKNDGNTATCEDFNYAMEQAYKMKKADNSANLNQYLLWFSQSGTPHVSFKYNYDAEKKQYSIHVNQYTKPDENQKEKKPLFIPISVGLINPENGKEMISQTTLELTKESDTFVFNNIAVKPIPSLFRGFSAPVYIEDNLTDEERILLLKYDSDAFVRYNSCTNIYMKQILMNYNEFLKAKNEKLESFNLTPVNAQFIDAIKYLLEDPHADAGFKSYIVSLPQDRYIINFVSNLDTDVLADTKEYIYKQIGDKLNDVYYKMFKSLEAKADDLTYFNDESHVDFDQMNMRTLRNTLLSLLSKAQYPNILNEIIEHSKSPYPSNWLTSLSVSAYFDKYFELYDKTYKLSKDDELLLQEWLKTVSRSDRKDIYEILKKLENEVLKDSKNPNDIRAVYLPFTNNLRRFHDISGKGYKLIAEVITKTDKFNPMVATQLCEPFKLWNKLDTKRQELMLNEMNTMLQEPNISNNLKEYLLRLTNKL
Description: P. falciparum M1AAP inhibitors, biochemical, fluorogenic H-Leu-NHMec substrate, 1536-well (AID 1445). Further details: species or system Plasmodium falciparum 3D7, 3D7.

A short description of assay [9]: cytotoxicity in KRAS-transformed pancreatic duct cells, primary screen, cell-based, fluorescence, HTS (AID 431).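 Further: cell line used: HPDE-C7K.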 It counts as functional. To be noted: Homo sapiens.
Another assay deals with T3, Streptokinase A (Streptococcus pyogenes serotype M1, UniProt P10520).
T3 sequence (P10520 whole entry): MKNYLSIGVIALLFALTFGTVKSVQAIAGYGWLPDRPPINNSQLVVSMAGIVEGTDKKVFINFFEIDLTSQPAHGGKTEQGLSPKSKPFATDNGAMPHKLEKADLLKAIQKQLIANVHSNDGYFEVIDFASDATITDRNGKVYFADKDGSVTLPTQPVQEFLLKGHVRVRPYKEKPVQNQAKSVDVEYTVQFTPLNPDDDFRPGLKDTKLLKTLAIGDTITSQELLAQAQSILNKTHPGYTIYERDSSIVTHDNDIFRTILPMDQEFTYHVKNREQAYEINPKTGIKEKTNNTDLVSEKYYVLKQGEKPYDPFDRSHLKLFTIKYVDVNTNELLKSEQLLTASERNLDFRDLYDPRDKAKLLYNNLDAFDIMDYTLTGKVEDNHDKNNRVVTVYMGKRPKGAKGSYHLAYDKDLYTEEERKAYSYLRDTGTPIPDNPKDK
Put plainly: S. pyogenes streptokinase expression inhibitors, potency, dose response, plasminogen activation absorbance, OD405 (AID 1914).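 Further: secreted streptokinase activity via plasminogen activation per viability signal from cell pellet.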 The assay is classed as functional, Streptococcus pyogenes M1 GAS.

Assay [10] can be described thus: cytotoxicity in HPDE-C7 cells, cell-based, fluorescence, HTS (AID 430). It counts as functional. Particulars: Homo sapiens.
In assay [11] the test system is Streptococcus sp. 'group A'. Description: growth inhibition of control SK(-) GAS strain, dose response, counter-screen for streptokinase expression inhibitor project, luminescence, kanamycin, BacTiterGlo, confirmation (AID 1900). The assay is classed as functional, organism-based.
Assay [12] can be described thus: cells. It counts as functional, cell-based.
In the next assay the target is Cytochrome P450 2C19 (Homo sapiens, UniProt P33261). Description: Cytochrome panel assay with activity outcomes. Panel member name: p450-cyp2c19 Compounds with AC50 equal or less than 10 uM are considered active. It counts as functional. Particulars: read-out: AC50.
A further assay deals with Cytochrome P450 2C9 (Homo sapiens, UniProt P11712).
Assay [13] concerns the target T4, Trace amine-associated receptor 1 (Homo sapiens, UniProt Q96RJ0).
T4 sequence (Q96RJ0 whole entry): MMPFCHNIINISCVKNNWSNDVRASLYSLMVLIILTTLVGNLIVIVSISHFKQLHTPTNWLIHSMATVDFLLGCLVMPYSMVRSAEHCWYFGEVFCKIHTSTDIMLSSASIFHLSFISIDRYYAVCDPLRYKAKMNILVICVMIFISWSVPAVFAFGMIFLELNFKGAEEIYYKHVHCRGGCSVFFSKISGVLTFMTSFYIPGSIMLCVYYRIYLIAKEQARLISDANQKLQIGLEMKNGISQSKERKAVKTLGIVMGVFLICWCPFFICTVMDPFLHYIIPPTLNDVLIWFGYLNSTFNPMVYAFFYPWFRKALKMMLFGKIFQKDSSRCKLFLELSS
Put plainly: Fluorescence-based cell-based high throughput dose response assay to identify agonists of the human trace amine associated receptor 1 (TAAR1). The assay is classed as functional.

A short description of assay [14]: cells. The assay is classed as functional, cell-based. The source holds these as a separate data set.
Assay [15] concerns the target T4, Trace amine-associated receptor 1. Description: Counterscreen for agonists of the human trace amine associated receptor 1 (hTAAR1): Fluorescence-based cell-based high throughput dose response assay to identify hTAAR1 agonist that also desensitize TAAR1 receptor response. The assay is classed as functional.
The nature of assay [16]: A375 melanoma cell cytotoxicity, dose response, counter-screen for MITF inhibitor project, CellTiter-Glo luminescence, dry powder, set 2 (AID 624489).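 Further: actives are compounds lowering A375 viability meaning general cytotoxicity.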 It counts as functional, cell-based. To be noted: A-375.
Assay [17] can be described thus: A375 melanoma cell viability loss, dose response, counter-screen for MITF inhibitor project, CellTiter-Glo luminescence, dry powder, set 4 (AID 624364).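 Further: A375 melanoma cells are MITF independent so this is a counter screen.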 Particulars: A-375. The assay is classed as functional, cell-based.
For assay [18], the target named is Induced myeloid leukemia cell differentiation protein Mcl-1 (Homo sapiens, UniProt Q07820). The assay is classed as functional.
The nature of assay [19]: cytotoxicity toward NIH3T3 fibroblasts, dose response, counter-screen, cell-based, ATP luminescence, mouse fibroblasts (AID 2010).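 Further: cells exposed to compound for about 90 hours before reading.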 It counts as functional.
Assay [20] can be described thus: inhibitors of intracellular T. cruzi replication, confirmation, NIH3T3 host cells, beta-gal luminescence (AID 2044).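 Further: intracellular parasites grown in NIH/3T3 mouse fibroblasts as host cells; luminescent beta-galactosidase reporter signal from transgenic T. cruzi replicating inside host cells; inhibitors lower the luminescence signal.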 It counts as functional, cell-based.

The source made the active and inactive calls.

In general, Ki refers to the equilibrium dissociation constant of an inhibitor or competing ligand from its target. As a reminder, the AC50 is the concentration giving half of the maximal activity seen. A word on the EC50: it is the concentration needed to bring the measured effect to its halfway point. A word on the IC50: it is the point on the concentration scale where inhibition reaches its midpoint.

`CCCC(=O)Nc1c2c(nn1-c1ccc(OC)cc1)C[S+]([O-])C2` (stereo not drawn): the Ki at fMet-Leu-Phe receptor was > 66.7 µM (inactive).
In the case of `COc1ccc(C(=O)Nc2nnc(-c3cccs3)s2)cc1`, the AC50 in [1] was 44.5 µM (active); in assay [3] it was 45.2 µM (active); in [4] it was 5.12 µM (active); in assay [5] it was 3.17 µM (active); in assay [7], > 52 µM (inactive). Moreover, the EC50 (in assay [2]; in the assay “cells [6]”) was > 67.5 µM (inactive) each time.
As for `Cc1cc(NC(=O)CSc2nc(CCC3CCCC3)nc3ccccc23)no1`, the IC50 in “cells [8]” is > 138 µM (inactive); at Major prion protein it was 9.42 µM (active).
Regarding `O=C(Cc1ccccc1)NNC(=S)NC(=O)c1cccnc1`, the IC50 on Albumin was > 94.1 µM (inactive).
Take `CCCCCNC(=O)c1ccc2c(=O)[nH]c3c(C(=O)NCC4CCCO4)sc(=S)n3c2c1` (stereo not drawn): the EC50 in the assay with Streptococcus is > 150 µM (not active); in assay [9], > 20 µM (not active); on Streptokinase A, 21.1 µM (inconclusive); in assay [10] it was 17.6 µM (active); in assay [11], 0.944 µM (active). Moreover, the IC50 at Aminopeptidase N is 37 µM (active). Also, the Ki on fMet-Leu-Phe receptor was 40.7 µM (inactive).
Consider `CCc1nc(SCC(=O)NNC(=O)C(C)C)c2ccccc2n1`, for which the IC50 is > 138 µM (inactive) in the assay “cells [8]” and 1.93 µM (active) on Major prion protein.
With `CC1CN(C(NC(=O)C(C)(C)C)C(Cl)(Cl)Cl)CC(C)O1` (stereo not drawn), the IC50 in “cells [12]” is > 29.9 µM (inactive); in assay [15] it was 21.6 µM (inactive). The results for the AC50 at Cytochrome P450 2C19 and at Cytochrome P450 2C9 were 8.91 µM (inconclusive) and 14.1 µM (inconclusive), respectively. Moreover, the EC50 in [13] is 3.82 µM (active); in “cells [14]” it was > 29.9 µM (inactive).
As to `O=C(CSC1=Nc2ccc(Cl)cc2S(=O)(=O)N1)NCCc1ccccc1`, the IC50 in the assay “cells [12]” is > 29.9 µM (inactive); in assay [15], 2.41 µM (active). Besides, the 50% effective concentration (EC50) in assay [13] is 0.295 µM (active); in the assay “cells [14]” it was > 29.9 µM (inactive).
Take `O=C(NC1=C(c2ccccc2)C(=O)c2ccccc2C1=O)c1ccco1`: the AC50 is 14.2 µM (active) in [16] and 21.3 µM (active) in [17].
On to `O=C(NC1=C(c2ccccc2)C(=O)c2ccccc2C1=O)c1ccc(Br)cc1`, for which the AC50 in [16] was 22.9 µM (active); in assay [17] it was 45.8 µM (active).
Consider `CCc1nnc(S)n1/N=C/c1cc(OC)cc([N+](=O)[O-])c1O`, for which the IC50 is > 94.1 µM (inactive) on Albumin and 12.4 µM (active) in [18]. Also, the values for the EC50 in [19] and in [20] were > 60 µM (not active) and 0.815 µM (active), respectively.
